US8278437B2, “Hydroxypropyl-sulfobutyl-beta-cyclodextrin, the preparation method, the analytical method, and the pharmacutical application thereof” (priority 2005, dated 2012)
≈ marks a conversion by molar mass, not a printed value. Where “and” joins values, the source holds several entries; their conditions need not be identical. Equal entries are not always repeated. Structures can show the parent of a compound that is named as a salt. Where two headings read alike, the source gives them in different places.

What was measured:
[1] = tested on: rat; settings: cited from earlier work
[2] = tested on: mouse; settings: cited from earlier work
[3] = tested on: dog; settings: cited from earlier work
[4] = tested on: Kunming mice; assay: Effect on mouse's spontaneous activities; format: in vivo; settings: positive control 2 mg/kg
Procedure: (Bibliography: 1. Xu, Shuyun Pharmacological Test Methodology, 2nd version, P.641, People Health Press, Beijing, 1991. 2. Medicine Secretary for the Ministry of Health, Guidelines on Preclinical Study of New Pharmaceuticals (weaten drugs), P. 42, July, 1993.) • 1. […] Effect on mouse's spontaneity times: (see Table 15).
Effect on the frequency of mice' spontaneous activities: healthy mice, and 50 mice whose frequency of activities was 220-320 within 5 min were selected and randomly divided into five groups, the establishment of dosages were the same as the above. The frequency of activity at o min were measured before drug administration, and then were conducted by intragastric administration, 30, 60, 120 and 180 min later, the frequency of activities within 5 min was measured and recorded respectively, then compared with that of the control group. The measuring time was the period between 9:00 am and 4:00 pm each day. A Six-light channel spontaneous activity instrument was used for one mouse, kept at 24-26° C. of room temperature of; and kept quiet; the test was carried out after the test boxes were covered with black cloth.

[5] = physchem; settings: phosphate buffer, 25 °C, pH 6.86, aqueous buffer, thermodynamic from solid
[6] = Solubilizing test of puerarin; format: physicochemical; settings: 25 °C, pH 6.86, aqueous buffer, thermodynamic from solid
Source text: The standard curve was plotted by concentration C against A (μg/mL) to obtain A=66.608 C+0.0017 R2=0.9999.

[7] = tested on: red blood cells; assay: Hemolytic test; format: cell-based; settings: 5% rabbit red blood cell suspension, 37° C., 30 min
Procedure: Under the present invention, using β-CD, HP-β-CD, SBE7-β-CD, SBE4-β-CD as controls, the hemolytic test results of 11 kinds of compounds are selected, shown in Table 13 and FIG. 9-FIG. 11.
10 ml of fresh rabbit blood were fetched to a clean conical flask, stirred with glass rod for 10 min to remove the fibers, then added with about 20 times of normal saline solution and placed in the centrifuge, 1500 rps/min, for about 3 min, then the supernatant was removed, washed repeated for several times until the supernatant solution becomes clear. The prepared red blood cells were prepared to 5% of suspension by normal saline solution. (Reference: State Drug Administration, Technical requirement of TCM injection study, Technical requirement of TCM new drug study, 1999, 11, 12)

[8] = tested on: mouse stomach intestine; settings: 120 mg/kg and 400 mg/kg; cited from earlier work
[9] = 10-100.0 mg/kg; cited from earlier work
[10] = Inclusion constant with prazosin hydrochloride, UV spectrophotometry; format: binding; settings: PBS pH 6.86, 250 nm
Source text: PBS of PH6.86 was used to prepare hydrochloride prazosin dilute solution, and this dilute solution was used to prepare HP4-SBE2-β-CD sample solution. […] A line by 1/ΔA against 1/[CD]0 was plotted, and the inclusion constant Ka of prazosin hydrochloride/HP4-SBE2-β-CD can be obtained according to the value of intercept/slope.

[11] = Inclusion constant with puerarin, UV spectrophotometry; format: binding; settings: PBS pH 6.86, 250 nm
Source text: PBS of PH6.86 was used to prepare puerarin dilute solution, and this dilute solution was used to prepare HP4-SBE2-β-CD sample solution. […] A straight line by 1/ΔA against 1/[CD]0 was plotted, and the inclusion constant Ka of puerarin/HP4-SBE2-β-CD can be obtained according to the value of intercept/slope.

[12] = Inclusion constant with ibuprofen, UV spectrophotometry; format: binding; settings: PBS pH 6.86, 265 nm
[13] = tested on: mouse; settings: 40 mg/kg, 120 mg/kg and 400 mg/kg; cited from earlier work

What does the source list for `CC(O)CCO` (stereo not drawn) [1,3-Butylene glycol]?
LD50 ([1]; Oral): 22.8 mg/kg and 23.31 mg/kg; LD50 ([1]; subcutaneous injection): 20.06 mg/kg and 16.51 mg/kg

Which results are given for `OCc1ccccc1` [Benzyl alcohol]?
LD50 ([1]; Oral): 1230 mg/kg; LD50 ([2]; Oral): 1580 mg/kg

Which results are given for `O=C(OCc1ccccc1)c1ccccc1` [Benzyl benzoate]?
LD50 ([2]; Oral): 1400 mg/kg; LD50 ([2]; cutaneous absorption): 4000 mg/kg

Which LD50 ([2]; Oral) does the source give for `CN(C)C=O` [DMF] here?
The LD50 was 2800 mg/kg.

What about the LD50 ([2]; intraperitoneal injection) of the same compound?
Its LD50 is 1400 mg/kg.

What about the LD50 ([2]; intravenous injection) of the same compound?
Its LD50 is 2000 mg/kg.

What about the LDLo ([2]; subcutaneous injection) of the same compound?
The LDLo was 1000 mg/kg.

With `C[S+](C)[O-]` [DMSO] as the compound, how does the LD50 ([2]; Oral) read?
Its LD50 is 16500 mg/kg.

What about the LD50 ([2]; intraperitoneal injection) of the same compound?
The LD50 was 3000 mg/kg.

What about the LD50 ([2]; intravenous injection) of the same compound?
The LD50 was 5750 mg/kg.

And the LD50 ([2]; subcutaneous injection)?
Its LD50 is 14 mg/kg.

Which LD50 ([2]; subcutaneous injection) does the source give for `CC(=O)OCC(COC(C)=O)OC(C)=O` [Glyceryl triacetate] here?
The LD50 was 2670 mg/kg and 3250 mg/kg.

For `OC[C@@H](O)[C@@H](O)[C@H](O)[C@H](O)CO` [Mannitol], which LD50 ([1]; Oral) is on record?
Its LD50 is 17 mg/kg.

And the LD50 ([2]; Oral)?
The LD50 was 22 mg/kg.

What about the LD50 ([2]; intraperitoneal injection) of the same compound?
Its LD50 is 14 mg/kg.

What about the LD50 ([2]; intravenous injection) of the same compound?
The LD50 was 17 mg/kg.

With `CC(O)CO` (stereo not drawn) [Propylene glycol] as the compound, how does the LD50 ([3]; Oral) read?
Its LD50 is 22 mg/kg.

What about the LD50 ([3]; intravenous injection) of the same compound?
The LD50 was 26 mg/kg.

What does the source list for `CCC(C)(C)O` [amyl alcohol-tert]?
LD50 ([1]; Oral): 1000 mg/kg; LD50 ([2]; subcutaneous injection): 2100 mg/kg

For `CN(C)CCCN1c2ccccc2Sc2ccc(Cl)cc21` [chloropromazine], which “frequency of spontaneous activities” value ([4]; 0 min) is on record?
The value was 302 ± 75 times/5 min.

What about the “frequency of spontaneous activities” value ([4]; 30 min) of the same compound?
Its value is 57 ± 40 times/5 min.

What about the “frequency of spontaneous activities” value ([4]; 60 min) of the same compound?
The value was 16 ± 20 times/5 min.

What about the “frequency of spontaneous activities” value ([4]; 120 min) of the same compound?
The value was 22 ± 19 times/5 min.

What about the “frequency of spontaneous activities” value ([4]; 180 min) of the same compound?
The value was 25 ± 28 times/5 min.

With `CCOC(=O)C(C)O` (stereo not drawn) [ethyl lactate] as the compound, how does the LD50 ([2]; intravenous injection) read?
Its LD50 is 0.6 (ml).

What about the LD50 ([2]; subcutaneous injection) of the same compound?
The LD50 was 2.5 (ml).

Which solubility at 12 h [5] does the source give for `COc1cc2nc(N3CCN(C(=O)c4ccco4)CC3)nc(N)c2cc1OC` [prazosin hydrochloride] here?
The solubility at 12 h was 0.0495 µg/mL.

Which solubility at 12 h [6] does the source give for `O=c1c(-c2ccc(O)cc2)coc2c([C@@H]3O[C@H](CO)[C@@H](O)[C@H](O)[C@H]3O)c(O)ccc12` [puerarin] here?
Its solubility at 12 h is 5800 µg/mL (≈ 13.9 mM).

Which “Concentration when the degree of hemolysis of 50 percent” value [7] does the source give for `OC[C@H]1O[C@@H]2O[C@H]3[C@H](O)[C@@H](O)[C@@H](O[C@H]4[C@H](O)[C@@H](O)[C@@H](O[C@H]5[C@H](O)[C@@H](O)[C@@H](O[C@H]6[C@H](O)[C@@H](O)[C@@H](O[C@H]7[C@H](O)[C@@H](O)[C@@H](O[C@H]8[C@H](O)[C@@H](O)[C@@H](O[C@H]1[C@H](O)[C@H]2O)O[C@@H]8CO)O[C@@H]7CO)O[C@@H]6CO)O[C@@H]5CO)O[C@@H]4CO)O[C@@H]3CO` [β-CD, β-cyclodextrin] here?
Its value is 1140 µg/mL.

What about the concentration without hemolysis [7] of the same compound?
Its concentration without hemolysis is 280 µg/mL.

What about the LD50 ([2]; intraperitoneal injection) of the same compound?
The LD50 was 788 mg/kg.

Which LD50 ([2]; intraperitoneal injection) does the source give for PEG400 here?
The LD50 was 4200 mg/kg.

And the LD50 ([2]; subcutaneous injection)?
The LD50 was 10 (ml).

With Sodium deoxycholate as the compound, how does the LD50 ([2]; Oral) read?
Its LD50 is 815 mg/kg.

And the LD50 ([2]; intraperitoneal injection)?
Its LD50 is 1400 mg/kg.

And the LD50 ([2]; subcutaneous injection)?
The LD50 was 75 mg/kg.

For hydroxypropyl-β-CD [HP-β-CD], which “impellent function of mouse stomach intestine” value [8] is on record?
The value was “slight reduction”.

And the “effect on respiratory amplitude, respiratory frequency, blood pressure and ECG” value [9]?
Its value is “no obvious effect”.

What about the “inclusion constant Ka” value [10] of the same compound?
The value was 597.

What about the “inclusion constant Ka” value [11] of the same compound?
The value was 345.

What about the “inclusion constant Ka” value [12] of the same compound?
Its value is 221.

And the “Concentration when the degree of hemolysis of 50 percent” value [7]?
Its value is 12610 µg/mL.

And the concentration without hemolysis [7]?
The concentration without hemolysis was 8160 µg/mL.

What about the “effect on mouse fasting blood glucose” value [13] of the same compound?
The value was “no obvious effect on mouse fasting blood glucose”.
